Where two headings read alike, the source gives them in different places.
How the values were obtained:
[1] = target: DCN1 (DCUND1) protein PONY domain (Homo sapiens (Human), UniProt Q96GG9); assay: TR-FRET assay, DCN1 binding with FAM-labeled probe
Outline: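 Binding was read as the TR-FRET ratio between a FAM-tagged inhibitor probe and Tb-labeled biotinylated E. coli-expressed DCN1 PONY domain, measured 1, 5 and 24 h after compound addition. The two setups used 5 nM protein/20 nM FAM-probe or 0.31 nM protein/900 nM total probe (100 nM labeled), in TritonX buffer with 200 mM NaCl.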

[2] = test system: Cullin-3 (CUL3) neddylation; assay: AlphaLISA assay for Cullin-3 (CUL3) neddylation in TF 1 cells; format: cell-based; details: Homo sapiens, TF-1, 3 h, 3 hours treatment
Outline: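 Neddylated CUL3 was quantified by AlphaLISA in lysates of TF 1 cells exposed for 3 h to test compound in IMDM without supplements. Percent inhibition set between vehicle and 1 μM DI-1548 positive control; IC50 derived by Hill-equation fitting of dose-response curves.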

[3] = test system: fetal hemoglobin gene HBG1; assay: HBG1 Nanostring Assay in CD34+ HSPC erythroid differentiation culture; format: cell-based, human; details: for Nanostring Ymax obs (%): relative to a control compound (C1); for EC50: Homo sapiens, 240 h, HBG1 induction, Day10 of erythroid differentiation
Experimental: A Nanostring Assay was performed to evaluate the ability of the compounds to induce expression of the fetal hemoglobin gene HBG1 in cells. The data are shown as EC50, with stronger inducers having a lower EC50 value and higher YMax.
Forty eight hours later (day −2), the cells were passaged at a density of 200,000 cells/ml (100 ul/well in 96well culture plate) in complete expantion media. The cells were plated at 200,000 cells/ml on day 0 and day 3, 400,000 cells/ml on day 5 in phase 1 erythroid differentiation containing StemSpan with 2.5 U/mL of EPO (R&D systems, 287-TC-500), 0.5 mg/mL of Holo-Transferrin (Sigma, T0665-500MG), 1× Glutamine (Gluta-Max) (Gibco, 35050-061), 5 μL/mL Lipid Mixture (Sigma, L0288-100ML), 50 ng/mL SCF (R&D Systems, 255-SV-050), 10 ng/mL IL-3 (R&D Systems, 203-IL010) and 10 ng/mL Insulin (Sigma, I9278-5ML) all 200 μl per well in 96 well culture plate. Cells were then passaged at 500,000 cells/ml and 200 μl per well on day 7 in phase 2 Erythroid differentiation (Phase 1 erythroid differentiation removing IL-3) until collection day (Day10). The culture conditions were used for both control DMSO as well as experimental treatments.
For all cell pasagings, cells were centrifuged at 300 g for 8 minutes at room temperature and cell number were normalized by MANTIS and Integra VIAFLO 384. All the compounds are diluted in DMSO and added to complete media by Formulatrix FAST and mixed starting from day −2. Cells were counted by Luna cell counter with AOPI Staining Solution (Nexcelom Bioscience, CS2-0106-25 mL) on day-2. Cells were counted by BD FACSCelesta Flow Cytometer with CountBright™ Plus Absolute Counting Beads (Thermal Fisher Scientific, C36995) and SYTOX AADvanced™ Ready Flow™ Reagent (Invitrogen, R37173) for other passages. Cells were cultured at 37° C. and 5% CO2. DMSO concentration was kept at 0.1% to minimize any effects to the cells by the vehicle. […] Compound plates were kept at room temperature to protect from light to avoid multiple freeze and thaw cycle.
On the collection day (Day10), 100K cells were collected and stored at −80° C. For direct hybridization for Nanostring, 100K cell pellet was lyzed in 25 μL of RLT (QIAGEN, 79216) with 1×β-Mercaptoethanol (Gibco, 21985-023) and shaked at 300-500 RPM for 5 minutes at room temperature. Cell lysate was stored in −80° C. after lysis.
All hybridizations were done in a total volume of 15 μL (3 μL of RNA lysate added to master mix of 12 μL probe A/B, capture probe/reporter probes, proteinase K and attenuation oligos suspended in hybridization buffer). Samples were hybridized at 67° C. for 22 hr. Following hybridization, the tripartide complexes were purified, immobilized by nCounter Prep Station and imaged by Digital Analyzer (nCounter MAX/FLEX Analysis System), to generate digital counts of barcodes corresponding to each target in the multiplexed reaction. Labeled barcodes obtained from unamplified extracts were counted at 555 images or field of view (FOV). The barcode counts for each sample were recorded in Reporter Code Count (RCC) files that are imported into nSolver analysis software (provided with CodeSet by NS) for quality control evaluation.
The quality control (QC) metric included limit of detection QC by checking for wells with less than 100 total counts for positive controls.
Hybridization signals were normalized against the ERCC positive controls and CodeSet Content (housekeeping gene). Briefly, this involved first calculating a sample-specific scaling factor by calculating arithmetic mean of geomeans of all ERCC positive controls with counts more than zero in all samples. Then this arithmetic mean was divided by the geometric mean of each lane to generate a lane-specific normalization factor. All negative controls and target-specific signal values were then normalized by multiplying counts values with their sample-specific scaling factor. The acceptable range for scaling factors is 0.3-3.0. […]

[4] = 24 hr after treatment with compound, read-out: TR FRET IC50 24 hr
[5] = read-out: TR FRET IC50 1 hr, 1 hr after treatment with compound
[6] = TR FRET IC50 1 hr (nM), 1 hr after treatment with compound

DCN1 (DCUND1) protein PONY domain, sequence (Q96GG9 60-248): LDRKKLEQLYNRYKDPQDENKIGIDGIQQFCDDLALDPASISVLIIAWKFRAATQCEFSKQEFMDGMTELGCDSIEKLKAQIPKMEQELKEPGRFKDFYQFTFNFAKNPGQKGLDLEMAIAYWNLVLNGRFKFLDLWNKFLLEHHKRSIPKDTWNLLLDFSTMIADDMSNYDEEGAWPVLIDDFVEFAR

| Structure (SMILES) | IC50 [1, 4] [nM] | IC50 [1, 5] [nM] | IC50 [2] [µM] | Nanostring Ymax obs (%) [3] | IC50 [1, 6] [nM] | EC50 [3] [µM] |
| --- | --- | --- | --- | --- | --- | --- |
| C=C(C(=O)NCc1nn(-c2ccccc2)c2c1[C@H](c1ccc(F)cc1)[C@H](NC(=O)c1cccc(C(F)(F)F)c1)C(=O)N2CC)C(C)N1CCOCC1 (mixture of isomers) [Compound I-89] | ≤ 200 | ≤ 200 | ≤ 0.1 | ++ (Nanostring Ymax greater than 50.0 and less than or equal to 100.0) |  |  |
| CCN1C(=O)[C@H](NC(=O)c2cccc(C(F)(F)F)c2)[C@H](c2ccc(F)cc2)c2c(C(=O)N3C[C@H](F)C[C@@H]3C#N)nn(-c3ccccc3)c21 (mixture of isomers) [Compound I-253, N-((4RS,5RS)-3-((2R,4R)-2-cyano-4-fluoropyrrolidine-1-carbonyl)-7-ethyl-4-(4-fluorophenyl)-6-oxo-1-phenyl-4,5,6,7-tetrahydro-1H-pyrazolo[3,4-b]pyridine-5-yl)-3-(trifluoromethyl)benzamide] | ≤ 200 |  | ≤ 0.1 | ++ (Nanostring Ymax greater than 50.0 and less than or equal to 100.0) | 1000 to 3000 | > 1 |
| C=C(CN1CC2CCC1CO2)C(=O)NCc1nn(-c2ccccc2)c2c1[C@H](c1ccc(F)cc1)[C@H](NC(=O)c1cccc(C(F)(F)F)c1)C(=O)N2CC (mixture of isomers) [Compound I-447] | ≤ 200 | ≤ 200 | ≤ 0.1 | +++ (Nanostring Ymax greater than 100.0) |  | ≤ 0.1 |
| C=C(CN1CC2CC1C2)C(=O)NCc1nn(-c2ccccc2)c2c1[C@H](c1ccc(F)cc1)[C@H](NC(=O)c1cccc(C(F)(F)F)c1)C(=O)N2CC (mixture of isomers) [Compound I-456] | ≤ 200 | ≤ 200 | ≤ 0.1 | ++ (Nanostring Ymax greater than 50.0 and less than or equal to 100.0) |  |  |
| C=C(CN1CC2(CCC2O)C1)C(=O)NCc1nn(-c2ccccc2)c2c1[C@H](c1ccc(F)cc1)[C@H](NC(=O)c1cccc(C(F)(F)F)c1)C(=O)N2CC (mixture of isomers) [Compound I-458] | ≤ 200 | ≤ 200 | ≤ 0.1 | ++ (Nanostring Ymax greater than 50.0 and less than or equal to 100.0) |  |  |
| C=C(CN1C2COCC1C2)C(=O)NCc1nn(-c2ccccc2)c2c1[C@H](c1ccc(F)cc1)[C@H](NC(=O)c1cccc(C(F)(F)F)c1)C(=O)N2CC (mixture of isomers) [Compound I-573] | ≤ 200 | ≤ 200 | ≤ 0.1 | ++ (Nanostring Ymax greater than 50.0 and less than or equal to 100.0) |  |  |
| CCN1C(=O)[C@@H](NC(=O)c2cccc(C(F)(F)F)c2)[C@@H](c2ccc(F)cc2)c2c([C@H](CCO)NC#N)nn(-c3ccccc3)c21 (mixture of isomers) [Compound I-576] | ≤ 200 |  | ≤ 0.1 | + (Nanostring Ymax greater than or equal to 0.0 and less than or equal to 50.0) | 200 to 1000 | > 1 |
| C=C(CN1C2CCC1COC2)C(=O)NCc1nn(-c2ccccc2)c2c1[C@H](c1ccc(F)cc1)[C@H](NC(=O)c1cccc(C(F)(F)F)c1)C(=O)N2CC (mixture of isomers) [Compound I-613] | ≤ 200 | ≤ 200 | ≤ 0.1 | +++ (Nanostring Ymax greater than 100.0) |  |  |
| C=C(CN1CCN(C2COC2)CC1)C(=O)NCc1nn(-c2ccccc2)c2c1[C@@H](c1ccc(F)cc1)[C@H](NC(=O)c1cccc(C(F)(F)F)c1)C(=O)N2CC (racemic) [Compound I-40] | ≤ 200 | ≤ 200 | ≤ 0.1 | ++ (Nanostring Ymax greater than 50.0 and less than or equal to 100.0) |  |  |
| C=C(CN(C)C1COC1)C(=O)NCc1nn(-c2ccccc2)c2c1[C@H](c1ccc(F)cc1)[C@H](NC(=O)c1cccc(C(F)(F)F)c1)C(=O)N2CC (racemic) [Compound I-102] | ≤ 200 | ≤ 200 | ≤ 0.1 | ++ (Nanostring Ymax greater than 50.0 and less than or equal to 100.0) |  |  |
| CCN1C(=O)[C@@H](NC(=O)c2cccc(C(F)(F)F)c2)[C@@H](c2ccc(F)cc2)c2c(CNC/C=C/C(=O)OC)nn(-c3ccccc3)c21 (racemic) [Compound I-127, rac-methyl I-4-((((4R,5R)-7-ethyl-4-(4-fluorophenyl)-6-oxo-1-phenyl-5-(3-(trifluoromethyl)benzamido)-4,5,6,7-tetrahydro-1H-pyrazolo[3,4-b]pyridine-3-yl)methyl)amino)but-2-enoate] | ≤ 200 |  | ≤ 0.1 | ++ (Nanostring Ymax greater than 50.0 and less than or equal to 100.0) | ≤ 200 | 0.1 to 1 |
| C=CS(=O)(=O)NCc1nn(-c2ccccc2)c2c1[C@H](c1ccc(F)cc1)[C@H](NC(=O)c1cccc(C(F)(F)F)c1)C(=O)N2CC (racemic) [Compound I-230] |  |  | ≤ 0.1 | ++ (Nanostring Ymax greater than 50.0 and less than or equal to 100.0) |  | > 1 |
| CCN1C(=O)[C@@H](NC(=O)c2cccc(C(F)(F)F)c2)[C@@H](c2ccc(F)cc2)c2c(CN(C#N)CCCO)nn(-c3ccccc3)c21 (racemic) [Compound I-246, N-[rac-(4S,5S)-3-[[cyano(3-hydroxypropyl)amino]methyl]-7-ethyl-4-(4-fluorophenyl)-6-oxo-1-phenyl-4,5-dihydropyrazolo[3,4-b]pyridine-5-yl]-3-(trifluoromethyl)benzamide] | 200 to 1000 |  | 0.1 to 1 | ++ (Nanostring Ymax greater than 50.0 and less than or equal to 100.0) | 200 to 1000 | > 1 |
| CCN1C(=O)[C@@H](NC(=O)c2cccc(C(F)(F)F)c2)[C@@H](c2ccc(F)cc2)c2c(CN(C)C/C=C/C(=O)OC)nn(-c3ccccc3)c21 (racemic) [Compound I-250, rac-methyl I-4-((((4R,5R)-7-ethyl-4-(4-fluorophenyl)-6-oxo-1-phenyl-5-(3-(trifluoromethyl)benzamido)-4,5,6,7-tetrahydro-1H-pyrazolo[3,4-b]pyridine-3-yl)methyl)(methyl)amino)but-2-enoate] | ≤ 200 |  | ≤ 0.1 | ++ (Nanostring Ymax greater than 50.0 and less than or equal to 100.0) | 200 to 1000 | > 1 |
| C=C(CN(C)C1COC1)C(=O)NCc1nn(-c2ccccc2)c2c1[C@@H](c1ccc(F)cc1)[C@H](NC(=O)c1cccc(C(F)(F)F)c1)C(=O)N2CC (racemic) [Compound I-491] | ≤ 200 |  | ≤ 0.1 | ++ (Nanostring Ymax greater than 50.0 and less than or equal to 100.0) | 200 to 1000 | ≤ 0.1 |
